Laboratory results taken from ChEMBL document CHEMBL1201862, “PubChem BioAssay data set” (2004).
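96-well plates; 48 h exposure; 5 concentrations. Endpoints by linear interpolation between flanking doses. Not reached: highest tested concentration assigned. GI50 is the concentration that inhibits growth by half.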 Active and inactive are the calls of the source. Cut-off read from the data, not from the text of the source: active = GI50 up to about 1.1 µM and inactive = higher.

Key:
Assay in all cases: NCI anticancer screen, dose series, 48 h
[1] = test system: A498
[2] = test system: A549
[3] = test system: CCRF-CEM
[4] = test system: COLO 205
[5] = test system: HT-29
[6] = test system: M14
[7] = test system: MDA-MB-435
[8] = test system: MOLT-4
[9] = test system: Malme-3M
[10] = test system: NCI-H226
[11] = test system: NCI/ADR-RES
[12] = test system: OVCAR-8
[13] = test system: SF-268
[14] = test system: SK-MEL-28
[15] = test system: SK-MEL-2
[16] = test system: SNB-75
[17] = test system: SW-620
[18] = test system: UO-31
[19] = test system: MDA-N

SMILES | GI50 [1] | GI50 [2] | GI50 [3] | GI50 [4] | GI50 [5] | GI50 [6] | GI50 [7] | GI50 [8] | GI50 [9] | GI50 [10] | GI50 [11] | GI50 [12] | GI50 [13] | GI50 [14] | GI50 [15] | GI50 [16] | GI50 [17] | GI50 [18] | GI50 [19]
S=c1sc2c(s1)SCc1cccc(n1)CSc1sc(=S)sc1SCc1cccc(n1)CS2 | > 100 µM (inactive) | > 100 µM (inactive) | > 100 µM (inactive) | > 100 µM (inactive) | > 100 µM (inactive) | > 100 µM (inactive) | > 100 µM (inactive) | > 100 µM (inactive) | > 100 µM (inactive) | > 100 µM (inactive) | > 100 µM (inactive) | > 100 µM (inactive) | > 100 µM (inactive) | > 100 µM (inactive) | > 100 µM (inactive) | > 100 µM (inactive) | > 100 µM (inactive) | > 100 µM (inactive) | 
CCCCNC(=O)OCCN=c1c2ccccc2ccc2ccccc12 |  | > 100 µM (inactive) | > 100 µM (inactive) | > 100 µM (inactive) | > 100 µM (inactive) | > 100 µM (inactive) | > 100 µM (inactive) | > 100 µM (inactive) | > 100 µM (inactive) | > 100 µM (inactive) | > 100 µM (inactive) | > 100 µM (inactive) | > 100 µM (inactive) | > 100 µM (inactive) | > 100 µM (inactive) | > 100 µM (inactive) | > 100 µM (inactive) | > 100 µM (inactive) | > 100 µM (inactive)
O=C(O)CC1OCC=C2CN3CCC45c6ccccc6NC4C1C2CC35 (configuration not stated) | > 100 µM (inactive) | > 100 µM (inactive) | > 100 µM (inactive) | > 100 µM (inactive) | > 100 µM (inactive) | > 100 µM (inactive) | > 100 µM (inactive) | > 100 µM (inactive) |  | > 100 µM (inactive) | > 100 µM (inactive) | > 100 µM (inactive) | > 100 µM (inactive) | > 100 µM (inactive) |  | 77.1 µM (inactive) | > 100 µM (inactive) | > 100 µM (inactive) | > 100 µM (inactive)
COC(=O)CCC1=C(CC(=O)OC)C(C)(OC)N/C1=N/C(=O)OCc1ccccc1 (configuration not stated) | > 100 µM (inactive) | > 100 µM (inactive) | > 100 µM (inactive) | > 100 µM (inactive) | > 100 µM (inactive) | > 100 µM (inactive) | > 100 µM (inactive) | > 100 µM (inactive) | > 100 µM (inactive) | > 100 µM (inactive) | > 100 µM (inactive) | > 100 µM (inactive) | > 100 µM (inactive) | > 100 µM (inactive) | > 100 µM (inactive) | > 100 µM (inactive) | > 100 µM (inactive) | > 100 µM (inactive) | 
Cc1ccccc1S(=O)(=O)Nn1cnc2ccc(S(=O)(=O)Nc3ccc(Cl)cc3)cc2c1=O |  | > 100 µM (inactive) | > 100 µM (inactive) | > 100 µM (inactive) | > 100 µM (inactive) | 65.9 µM (inactive) | 82.8 µM (inactive) | > 100 µM (inactive) | > 100 µM (inactive) | > 100 µM (inactive) | > 100 µM (inactive) | > 100 µM (inactive) | > 100 µM (inactive) | > 100 µM (inactive) | 16.6 µM (inactive) | > 100 µM (inactive) | > 100 µM (inactive) | 18.1 µM (inactive) | 53.1 µM (inactive)
Oc1ccc[nH]c1=[Se] |  | 32.9 µM (inactive) | 35.3 µM (inactive) | 18.7 µM (inactive) | > 100 µM (inactive) | 47.6 µM (inactive) | 41.8 µM (inactive) | > 100 µM (inactive) | 50.1 µM (inactive) | > 100 µM (inactive) | 55.1 µM (inactive) | 37.2 µM (inactive) | 76.2 µM (inactive) | 71.1 µM (inactive) | > 100 µM (inactive) | 92.3 µM (inactive) | 77.6 µM (inactive) | 83.2 µM (inactive) | 57 µM (inactive)
O=C(CP(c1ccccc1)c1ccccc1)c1cccc(C(=O)CP(c2ccccc2)c2ccccc2)c1 |  | 15.6 µM (inactive) | 6.76 µM (inactive) | 12.1 µM (inactive) | 8.2 µM (inactive) | 52.6 µM (inactive) | 45.7 µM (inactive) | 6.75 µM (inactive) |  | 66.4 µM (inactive) | > 100 µM (inactive) | 89.7 µM (inactive) | 80.9 µM (inactive) | 92 µM (inactive) | > 100 µM (inactive) | 55.6 µM (inactive) | > 100 µM (inactive) | 12.5 µM (inactive) | 70.3 µM (inactive)
CCOC(=O)c1nc2ccccc2nc1NCc1ccc(OC)cc1 | 32.2 µM (inactive) | > 100 µM (inactive) | > 100 µM (inactive) | > 100 µM (inactive) | 96.4 µM (inactive) |  | > 100 µM (inactive) | > 100 µM (inactive) | > 100 µM (inactive) | > 100 µM (inactive) | 68.1 µM (inactive) | > 100 µM (inactive) | > 100 µM (inactive) | > 100 µM (inactive) |  | 48.8 µM (inactive) | > 100 µM (inactive) | > 100 µM (inactive) | 
COc1ccc2c(c1OC)C[C@@H]1c3c(cc4c(c3-2)OCO4)CCN1C | 19.1 µM (inactive) | 40.2 µM (inactive) | 20.3 µM (inactive) | 18.6 µM (inactive) | 15.8 µM (inactive) | 25.9 µM (inactive) | 27.5 µM (inactive) | 24.3 µM (inactive) | 30.6 µM (inactive) | 18.1 µM (inactive) |  | 30.1 µM (inactive) | 37.1 µM (inactive) | 29.2 µM (inactive) | 28.2 µM (inactive) | 17.1 µM (inactive) | 29.8 µM (inactive) | 10.8 µM (inactive) | 44.1 µM (inactive)
COc1ccc(C2c3cc4c(cc3OC(NNc3ccccc3)C2C)OCO4)cc1 (configuration not stated) | 17.2 µM (inactive) | 4.09 µM (inactive) | 4.01 µM (inactive) | 7.06 µM (inactive) | 11.6 µM (inactive) | 6.14 µM (inactive) | 4.71 µM (inactive) | 3.15 µM (inactive) | 8.47 µM (inactive) | 16.3 µM (inactive) |  | 24.9 µM (inactive) | 20.3 µM (inactive) | 26.4 µM (inactive) | 21.7 µM (inactive) | 22.6 µM (inactive) | 21.7 µM (inactive) | 4.33 µM (inactive) | 8.71 µM (inactive)
CS(=O)(=O)c1ccc(NNc2cc(=O)[nH]c(=O)[nH]2)cc1 | > 100 µM (inactive) | > 100 µM (inactive) | > 100 µM (inactive) | > 100 µM (inactive) | > 100 µM (inactive) | > 100 µM (inactive) |  | > 100 µM (inactive) | > 100 µM (inactive) | > 100 µM (inactive) | > 100 µM (inactive) |  | > 100 µM (inactive) | > 100 µM (inactive) | > 100 µM (inactive) | > 100 µM (inactive) | > 100 µM (inactive) | > 100 µM (inactive) | > 100 µM (inactive)
Cc1cccc2c1Oc1cc(Cl)ccc1C2NC(=O)CCN1CCN(CCO)CC1 (configuration not stated) |  | 11.5 µM (inactive) | 17.7 µM (inactive) | 17.7 µM (inactive) | 15 µM (inactive) | 15.5 µM (inactive) | 14 µM (inactive) | 14.4 µM (inactive) |  |  | 15.8 µM (inactive) | 13.4 µM (inactive) | 23.3 µM (inactive) | 3.13 µM (inactive) |  | 4.61 µM (inactive) | 18.3 µM (inactive) | 12.8 µM (inactive) | 4.25 µM (inactive)
CCCCc1ccc(Nc2nc(S)c3[nH]cnc3n2)cc1 | 16.6 µM (inactive) | 36.8 µM (inactive) | 21.1 µM (inactive) | 16.6 µM (inactive) | 10.3 µM (inactive) | 24.2 µM (inactive) | 17.1 µM (inactive) | 1.43 µM (inactive) | 22 µM (inactive) | 16.3 µM (inactive) | 13.4 µM (inactive) | > 10 µM (inactive) | 50.7 µM (inactive) | 22.9 µM (inactive) | 17 µM (inactive) |  | 15.4 µM (inactive) | 28.1 µM (inactive) | 
CC1=Nc2c(ccc3c2C(=O)c2ccccc2C3=O)NC(c2cccc3c2CCC3)C1 (configuration not stated) | > 67.3 µM (inactive) | > 100 µM (inactive) | 0.612 µM (active) | > 100 µM (inactive) | > 100 µM (inactive) | > 92 µM (inactive) |  | 5.11 µM (inactive) | > 100 µM (inactive) | > 66.2 µM (inactive) |  | > 100 µM (inactive) | > 100 µM (inactive) | > 100 µM (inactive) | > 80.9 µM (inactive) | > 100 µM (inactive) | > 100 µM (inactive) | 4.72 µM (inactive) | 
CCOC(=O)c1c(-c2ccccc2)nc2ccccc2c1O | > 100 µM (inactive) | > 100 µM (inactive) | > 10 µM (inactive) | > 100 µM (inactive) | > 100 µM (inactive) | > 100 µM (inactive) |  | > 100 µM (inactive) | > 100 µM (inactive) |  | > 100 µM (inactive) | > 100 µM (inactive) | > 100 µM (inactive) | > 100 µM (inactive) |  | > 100 µM (inactive) | > 100 µM (inactive) | > 100 µM (inactive) | > 100 µM (inactive)
CCOC(=O)c1ccc(-c2ccc(Cl)cc2)[nH]1 |  | > 10 µM (inactive) | > 10 µM (inactive) |  | > 10 µM (inactive) | > 10 µM (inactive) | > 10 µM (inactive) | > 10 µM (inactive) | > 10 µM (inactive) | 8.47 µM (inactive) | > 10 µM (inactive) | > 10 µM (inactive) | > 10 µM (inactive) |  | > 10 µM (inactive) | > 10 µM (inactive) |  | > 10 µM (inactive) | 5.45 µM (inactive)
